# Laboratory results taken from PubChem BioAssay AID2060912 (Molecular Pharmacology Branch, DTP, NCI, 2025).
# Test system: HUVEC/MSC spheroids viability
# Experiment: Human HUVEC/MSC cell line growth inhibition [KRAS2];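 for viability, T/C: percent of DMSO vehicle control luminescence so 100% = untreated viability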
# Conditions: for IC50: curve of first compound; for viability, T/C: stronger effect = lower value
# Outline: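 Spheroids of pooled-donor HUVEC and hMSC (passage ≤5) without tumour cells were treated with KRAS-pathway inhibitors alone and combined with targeted agents. Top concentration was at or near clinical Cmax, or 10 microM when Cmax was unknown, descending in half-log steps.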
# [1] = second compound 0.0316 µM, first compound 0.0316 µM
# [2] = second compound 0.0316 µM, first compound 0.1 µM
# [3] = second compound 0.0316 µM, first compound 0.316 µM
# [4] = second compound 0.0316 µM, first compound 1 µM
# [5] = second compound 0.0316 µM, first compound 3.16 µM
# [6] = second compound 0.0316 µM, first compound 10 µM
# [7] = second compound 0.1 µM, first compound 0.0316 µM
# [8] = second compound 0.1 µM, first compound 0.1 µM
# [9] = second compound 0.1 µM, first compound 0.316 µM
# [10] = second compound 0.1 µM, first compound 1 µM
# [11] = second compound 0.1 µM, first compound 3.16 µM
# [12] = second compound 0.1 µM, first compound 10 µM
# [13] = second compound 0.316 µM, first compound 0.0316 µM
# [14] = second compound 0.316 µM, first compound 0.1 µM
# [15] = second compound 0.316 µM, first compound 0.316 µM
# [16] = second compound 0.316 µM, first compound 1 µM
# [17] = second compound 0.316 µM, first compound 3.16 µM
# [18] = second compound 0.316 µM, first compound 10 µM
# [19] = second compound 1 µM, first compound 0.0316 µM
# [20] = second compound 1 µM, first compound 0.1 µM
# [21] = second compound 1 µM, first compound 0.316 µM
# [22] = second compound 1 µM, first compound 1 µM
# [23] = second compound 1 µM, first compound 3.16 µM
# [24] = second compound 1 µM, first compound 10 µM
# [25] = second compound 3.16 µM, first compound 0.0316 µM
# [26] = second compound 3.16 µM, first compound 0.1 µM
# [27] = second compound 3.16 µM, first compound 0.316 µM
# [28] = second compound 3.16 µM, first compound 1 µM
# [29] = second compound 3.16 µM, first compound 3.16 µM
# [30] = second compound 3.16 µM, first compound 10 µM
# [31] = second compound 10 µM, first compound 0.0316 µM
# [32] = second compound 10 µM, first compound 0.1 µM
# [33] = second compound 10 µM, first compound 0.316 µM
# [34] = second compound 10 µM, first compound 1 µM
# [35] = second compound 10 µM, first compound 3.16 µM
# [36] = second compound 10 µM, first compound 10 µM
compound,measurement,setting,value
CC1COCCN1c1cc(-c2ccnn2C)c2ccnc(-c3ccn[nH]3)c2n1 (stereo unspecified) + COc1cc2nc(C)nc(NC(C)c3cc(N)cc(C(F)(F)F)c3)c2cc1OC1CCOC1,IC50,second compound 0.0316 µM,1740 nM
same,IC50,second compound 0.1 µM,908 nM
same,IC50,second compound 0.316 µM,> 3000 nM
same,IC50,second compound 1 µM,1040 nM
same,IC50,second compound 3.16 µM,2520 nM
same,IC50,second compound 10 µM,> 3000 nM
same,"viability, T/C","second compound 0.0316 µM, first compound 0.00949 µM",98.9%
same,"viability, T/C","second compound 0.0316 µM, first compound 0.03 µM",92.4%
same,"viability, T/C","second compound 0.0316 µM, first compound 0.0949 µM",86.8%
same,"viability, T/C","second compound 0.0316 µM, first compound 0.3 µM",75.7%
same,"viability, T/C","second compound 0.0316 µM, first compound 0.949 µM",55.9%
same,"viability, T/C","second compound 0.0316 µM, first compound 3 µM",43.9%
same,"viability, T/C","second compound 0.1 µM, first compound 0.00949 µM",83.2%
same,"viability, T/C","second compound 0.1 µM, first compound 0.03 µM",81.1%
same,"viability, T/C","second compound 0.1 µM, first compound 0.0949 µM",79.7%
same,"viability, T/C","second compound 0.1 µM, first compound 0.3 µM",80.4%
same,"viability, T/C","second compound 0.1 µM, first compound 0.949 µM",48.8%
same,"viability, T/C","second compound 0.1 µM, first compound 3 µM",46.4%
same,"viability, T/C","second compound 0.316 µM, first compound 0.00949 µM",82.2%
same,"viability, T/C","second compound 0.316 µM, first compound 0.03 µM",95%
same,"viability, T/C","second compound 0.316 µM, first compound 0.0949 µM",80.3%
same,"viability, T/C","second compound 0.316 µM, first compound 0.3 µM",79.8%
same,"viability, T/C","second compound 0.316 µM, first compound 0.949 µM",47.6%
same,"viability, T/C","second compound 0.316 µM, first compound 3 µM",52.4%
same,"viability, T/C","second compound 1 µM, first compound 0.00949 µM",88.3%
same,"viability, T/C","second compound 1 µM, first compound 0.03 µM",89.8%
same,"viability, T/C","second compound 1 µM, first compound 0.0949 µM",95.8%
same,"viability, T/C","second compound 1 µM, first compound 0.3 µM",72.1%
same,"viability, T/C","second compound 1 µM, first compound 0.949 µM",53.3%
same,"viability, T/C","second compound 1 µM, first compound 3 µM",37.3%
same,"viability, T/C","second compound 3.16 µM, first compound 0.00949 µM",79%
same,"viability, T/C","second compound 3.16 µM, first compound 0.03 µM",94.1%
same,"viability, T/C","second compound 3.16 µM, first compound 0.0949 µM",93.2%
same,"viability, T/C","second compound 3.16 µM, first compound 0.3 µM",81.7%
same,"viability, T/C","second compound 3.16 µM, first compound 0.949 µM",59.5%
same,"viability, T/C","second compound 3.16 µM, first compound 3 µM",48.2%
same,"viability, T/C","second compound 10 µM, first compound 0.00949 µM",63.3%
same,"viability, T/C","second compound 10 µM, first compound 0.03 µM",72.6%
same,"viability, T/C","second compound 10 µM, first compound 0.0949 µM",65.2%
same,"viability, T/C","second compound 10 µM, first compound 0.3 µM",60.4%
same,"viability, T/C","second compound 10 µM, first compound 0.949 µM",59.4%
same,"viability, T/C","second compound 10 µM, first compound 3 µM",59%
CC1OCC2(CCN(c3cnc(Sc4ccnc(N)c4Cl)c(N)n3)CC2)C1N (stereo unspecified) + COc1cc2nc(C)nc(NC(C)c3cc(N)cc(C(F)(F)F)c3)c2cc1OC1CCOC1,IC50,second compound 0.0316 µM,6360 nM
same,IC50,second compound 0.1 µM,6220 nM
same,IC50,second compound 0.316 µM,> 10000 nM
same,IC50,second compound 1 µM,6150 nM
same,IC50,second compound 3.16 µM,5190 nM
same,IC50,second compound 10 µM,3730 nM
same,"viability, T/C",[1],101%
same,"viability, T/C",[2],111%
same,"viability, T/C",[3],91.8%
same,"viability, T/C",[4],64.4%
same,"viability, T/C",[5],70.6%
same,"viability, T/C",[6],40.4%
same,"viability, T/C",[7],115%
same,"viability, T/C",[8],90.7%
same,"viability, T/C",[9],76.8%
same,"viability, T/C",[10],72.4%
same,"viability, T/C",[11],63%
same,"viability, T/C",[12],40.8%
same,"viability, T/C",[13],80.7%
same,"viability, T/C",[14],95.2%
same,"viability, T/C",[15],88%
same,"viability, T/C",[16],63.1%
same,"viability, T/C",[17],60.2%
same,"viability, T/C",[18],54.2%
same,"viability, T/C",[19],83.6%
same,"viability, T/C",[20],100%
same,"viability, T/C",[21],67.5%
same,"viability, T/C",[22],72.3%
same,"viability, T/C",[23],57.9%
same,"viability, T/C",[24],44.3%
same,"viability, T/C",[25],82%
same,"viability, T/C",[26],86.8%
same,"viability, T/C",[27],86.9%
same,"viability, T/C",[28],65%
same,"viability, T/C",[29],59.2%
same,"viability, T/C",[30],41.5%
same,"viability, T/C",[31],68.7%
same,"viability, T/C",[32],73.8%
same,"viability, T/C",[33],69.8%
same,"viability, T/C",[34],59%
same,"viability, T/C",[35],56.7%
same,"viability, T/C",[36],27%
Cn1nccc1Nc1nccc(-c2cc3c(s2)C(C)(C)N(CCN2CCOCC2)C3=O)n1 + COc1cc2nc(C)nc(NC(C)c3cc(N)cc(C(F)(F)F)c3)c2cc1OC1CCOC1,IC50,second compound 0.0316 µM,2410 nM
same,IC50,second compound 0.1 µM,2320 nM
same,IC50,second compound 0.316 µM,2560 nM
same,IC50,second compound 1 µM,2570 nM
same,IC50,second compound 3.16 µM,2590 nM
same,IC50,second compound 10 µM,2220 nM
same,"viability, T/C",[1],104%
same,"viability, T/C",[2],124%
same,"viability, T/C",[3],124%
same,"viability, T/C",[4],108%
same,"viability, T/C",[5],32.1%
same,"viability, T/C",[6],4.35%
same,"viability, T/C",[7],90.2%
same,"viability, T/C",[8],115%
same,"viability, T/C",[9],110%
same,"viability, T/C",[10],92.1%
same,"viability, T/C",[11],34.4%
same,"viability, T/C",[12],4.06%
same,"viability, T/C",[13],108%
same,"viability, T/C",[14],119%
same,"viability, T/C",[15],107%
same,"viability, T/C",[16],95%
same,"viability, T/C",[17],39.9%
same,"viability, T/C",[18],3.01%
same,"viability, T/C",[19],85.6%
same,"viability, T/C",[20],113%
same,"viability, T/C",[21],113%
same,"viability, T/C",[22],106%
same,"viability, T/C",[23],37.8%
same,"viability, T/C",[24],7.24%
same,"viability, T/C",[25],92.5%
same,"viability, T/C",[26],111%
same,"viability, T/C",[27],121%
same,"viability, T/C",[28],104%
same,"viability, T/C",[29],38.5%
same,"viability, T/C",[30],3.79%
same,"viability, T/C",[31],72.5%
same,"viability, T/C",[32],92.9%
same,"viability, T/C",[33],93.5%
same,"viability, T/C",[34],88.5%
same,"viability, T/C",[35],33.6%
same,"viability, T/C",[36],0.79%
